Results as given in ChEMBL document CHEMBL1201862, “PubChem BioAssay data set” (2004).
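Interpolation was linear, between the two tested concentrations surrounding the appropriate level; five concentrations were tested over 48 hours in 96-well plates. GI50 marks 50% less growth.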 Activity calls are given as the source filed them. Cut-off read from the data, not from the text of the source: active = GI50 up to about 1.1 µM and inactive = higher.

Key:
Assay in all cases: NCI-60 cell line screen, 48 h
[1] = system: SK-OV-3
[2] = system: M14
[3] = system: A498
[4] = system: MOLT-4
[5] = system: SK-MEL-2
[6] = system: 786-0
[7] = system: Malme-3M
[8] = system: OVCAR-8
[9] = system: HT-29
[10] = system: SR
[11] = system: SK-MEL-5
[12] = system: NCI-H522
[13] = system: LOX IMVI
[14] = system: MCF7
[15] = system: EKVX
[16] = system: SNB-19
[17] = system: OVCAR-4
[18] = system: SNB-75
[19] = system: HOP-62
[20] = system: UACC-62

Measured: GI50

COc1ccc2[nH]c3c4c(ccc3c2c1)C(=O)C=CC4=O
active: [4] 0.448 µM | [10] 0.333 µM
inactive: [1] 43.4 µM | [2] 10 µM | [3] 31.3 µM | [5] 13.8 µM | [6] 11.4 µM | [7] 7.73 µM | [8] 5.22 µM | [9] 20.3 µM | [11] 18.9 µM | [12] 1.74 µM | [13] 9.31 µM | [14] 10.8 µM | [15] 16.4 µM | [16] 40.5 µM | [17] 15 µM | [18] 18.8 µM | [19] 51.2 µM | [20] 16.7 µM

O=C1Nc2c(Cl)cccc2/C1=N/Nc1ccccc1[N+](=O)[O-]
inactive: [1] 18.8 µM | [2] 21.7 µM | [3] 28.2 µM | [4] 31.3 µM | [5] 70.6 µM | [6] 10.1 µM | [7] 3.58 µM | [8] 12.4 µM | [9] 12.5 µM | [10] 4.68 µM | [11] 12.2 µM | [12] 4.45 µM | [13] 11.8 µM | [14] 14.7 µM | [15] 3.51 µM | [16] 44.3 µM | [17] 8.81 µM | [18] 14 µM | [19] 9.27 µM | [20] 17.5 µM

CC[C@@]1(O)C[C@H](OC2CC(N(C)C)C(O)C(C)O2)c2c(O)c3c(c(O)c2[C@H]1OC1CC(N(C)C)C(O)C(C)O1)C(=O)c1cccc(O)c1C3=O (stereo not given in full)
active: [1] 0.0397 µM | [2] 0.0357 µM | [3] 0.012 µM | [4] 0.0817 µM | [5] 0.0227 µM | [6] 0.0196 µM | [7] 0.0424 µM | [8] 0.0274 µM | [9] 0.0224 µM | [10] 0.0385 µM | [11] 0.0323 µM | [12] 0.0144 µM | [13] 0.0208 µM | [14] 0.0321 µM | [15] 0.0984 µM | [16] 0.04 µM | [17] 0.0409 µM | [18] 0.0195 µM | [19] 0.0404 µM | [20] 0.0253 µM

C/C(=N\Nc1ccccc1)C(CN(C)C)C(c1ccccc1)c1c(O)c2ccccc2oc1=O (stereo not given)
inactive: [1] > 100 µM | [2] > 100 µM | [3] > 100 µM | [4] 42.1 µM | [5] > 100 µM | [6] > 100 µM | [7] > 83 µM | [8] > 100 µM | [9] > 100 µM | [10] 85.9 µM | [11] > 100 µM | [12] > 100 µM | [13] > 100 µM | [14] > 100 µM | [15] > 100 µM | [16] > 100 µM | [17] > 100 µM | [18] > 77.3 µM | [19] > 100 µM | [20] > 100 µM

Cc1noc(/N=C2\C=C(O)C(=O)c3ccccc32)c1C
inactive: [1] 8.3 µM | [3] 29.2 µM | [4] 18.7 µM | [6] 21.2 µM | [7] 2.55 µM | [8] 7.38 µM | [9] 17.6 µM | [10] 18.7 µM | [13] 2.14 µM | [15] 37.8 µM | [16] 3.91 µM | [17] 19.5 µM | [18] 3.5 µM | [19] 2.18 µM | [20] 2.14 µM
active: [2] 0.656 µM | [5] 0.251 µM | [11] 0.676 µM | [12] 0.274 µM | [14] 0.495 µM

Cc1nccn1S(=O)(=O)c1ccc(Cl)cc1
inactive: [1] 87.5 µM | [2] 41.7 µM | [3] 36.1 µM | [4] 56.9 µM | [5] 72.9 µM | [6] > 100 µM | [7] 34.8 µM | [8] 59.2 µM | [9] 35 µM | [10] 38 µM | [11] 37.4 µM | [12] 27.9 µM | [13] 41.5 µM | [14] 45 µM | [15] 31.3 µM | [16] > 100 µM | [17] 29.5 µM | [18] 57 µM | [19] 58.2 µM | [20] 55.6 µM
